# From article PMC5789847, “Bismuth antimicrobial drugs serve as broad-spectrum metallo-β-lactamase inhibitors” (Nature Communications, 2018)
# Assays:
# [1] = system: C208A-Rosetta; experiment: Microdilution MIC assay; assay type: cell-based, E. coli; details: C208A-Rosetta
# Description: For the test of C208A-Rosetta, the growth condition briefly goes as follow. Overnight culture of C208A-Rosetta was diluted into fresh LB medium (1000-fold) and regrew to OD ~0.6. The overexpression of NDM-1-C208A was induced by addition of 200 μM isopropyl β-D-1-thiogalactopyranoside (IPTG) for 18 h at 25 °C. The following susceptibility test was performed as described in the Microdilution MIC and MBC assay section in the methodology by using the resulting bacterial pellets with the supplementation of 200 μM IPTG.
# (§1) Other procedures were kept strictly the same.
# [2] = system: NDM-BL21; experiment: Microdilution MIC assay; assay type: cell-based, E. coli
# Description: as §1
# [3] = system: NDM-C. freundii (NDM-1^+); experiment: Microdilution MIC/MBC and checkerboard assay; assay type: cell-based, Citrobacter freundii
# [4] = system: NDM-HK; experiment: In vitro cell infection assay (MDCK cells); assay type: cell-based, E. coli
# Description: MDCK cell was cultured in minimum essential Media (MEM) supplemented with fetal bovine serum (FBS, 10%) and grown at 37 °C in 5% CO2-humidified atmosphere for 3 days. About 1.0 × 10^5 MDCK cells were seeded per well in 24-well plates and incubated as described above for 48 h to ensure confluency. Logarithmic cultures of NDM-HK were washed with PBS for three times and re-suspended in MEM/10% FBS resulting in the initial bacterial density of about 2.0 × 10^7 CFU mL^−1. Then, 500 μL of bacterial suspension were added to each well and substituted for the previous MDCK culture medium. The plates were centrifuged at 800 × g for 10 min and then incubated for another 6 h, executing the bacterial infection at multiplicity of infection (MOI) of 200. We then used two infection models for examination, viz, the cell-associated bacterial infection and cell-invaded bacterial infection. The cell-associated bacteria are herein defined as bacteria that attach to, penetrate, or transcytose in MDCK cells, while the cell-invaded bacteria are defined as bacteria that penetrate or transcytose MDCK cells. For the cell-invaded infection, the infected cells were incubated in culture medium supplemented with ciprofloxacin (100 µg mL^−1) for 1 h to remove extracellular bacteria. Then, the treated cells were washed vigorously with PBS for six times and replenished with culture medium. For the cell-associated infection, the infected cells were only washed vigorously with PBS for six times to remove unbound bacteria. The infected MDCK cells were then exposed to either MER or CBS, or their combination for overnight under identical cell culture condition. Cells in the absence of drugs served as a control. The bacterial loads were examined by lysing MDCK cells with 1% Triton X-100 in PBS and serially diluting the resulting lysates to enumerate bacterial colonies by agar plating. The assay was performed in triplicate, repeated three times, and results were expressed as average ± SD.
substance,measurement,setting,value
colloidal bismuth subcitrate [CBS],MIC of MER in combination with CBS at 16 µg mL-1,[1],0.12 µg/mL
same,MIC of MER in combination with CBS at 32 µg mL-1,[1],0.12 µg/mL
same,decrease in MIC of MER in combination with CBS,[2]; NDM-1 positive E. coli BL21(DE3),8 fold
same,MIC of MER in combination with CBS,"[2]; NDM-1 positive E. coli BL21(DE3), CBS concentration not stated",2 µg/mL
same,MIC of MER in combination with CBS at 16 µg mL-1,[2]; NDM-BL21,8 µg/mL
same,MIC of MER in combination with CBS at 32 µg mL-1,[2]; NDM-BL21,4 µg/mL
same,MIC of MER in combination with CBS at 256 µg mL-1,[2]; NDM-BL21,2 µg/mL
same,MBC of MER in combination with compound at 32 µg mL^-1,[3]; NDM-C. freundii (NDM-CF),1 µg/mL
same,MIC of MER in combination with compound at 32 µg mL^-1,[3]; NDM-C. freundii (NDM-CF),0.5 µg/mL
same,MBC of Bi(III) compound alone,[3]; NDM-CF,> 256 µg/mL
same,MIC of Bi(III) compound alone,[3]; NDM-CF,> 256 µg/mL
same,FICI,"[3]; NDM-CF, MER + compound, 256 µg mL^-1 set as MIC of Bi(III)",0.125
same,"decrease in the bacterial load, bacteria-invaded model",[4]; MER and CBS combination,more than 100 fold
same,"viable bacterial loads, cell-associated infection","[4]; MOI 200, MER and CBS (32 μg mL^−1) in combination, overnight",~10^4 CFU
